Patent publication EP4741420A1, “PHARMACEUTICAL COMPOSITION FOR PREVENTING OR TREATING OBESITY COMPRISING GLP ANALOGUE AS ACTIVE INGREDIENT” (priority 2023, dated 2025)
Peptide text beside a SMILES is read from it.

Tests used:
[1] = tested on: diet-induced obesity (DIO) mouse model; test: DIO mouse model QD: obesity-related factors in plasma (Example 7-4); type: in vivo; details: DIO mice, QD (once daily), 45 nmol/kg/dose
Experimental: In addition, after the experiment was completed, blood and serum samples were obtained from each mouse model, and biochemical tests were performed for blood glucose, total cholesterol, high-density lipoprotein (HDL), low-density lipoprotein (LDL), and triglycerides.
(§1) The anti-obesity effects of SEQ ID NO: 1 prepared in Example 1, and SEQ ID NOs: 6 and 7 prepared in Example 4 were analyzed. […] In addition, as an experimental model, a diet-induced obesity (DIO) mouse model fed a high-fat diet for 3 months was used.
To analyze the anti-obesity effect, mouse plasma was obtained postmortem to measure obesity-related factors in plasma. Here, the analysis method was the same as described in Example 3.

[2] = tested on: diet-induced obesity (DIO) mouse model; test: DIO mouse model QD: liver damage markers AST/ALT (Example 8-1); type: in vivo; details: serum, DIO mice, QD (once daily), 45 nmol/kg/dose
Experimental: The anti-obesity effect in the liver was analyzed for the same materials used in Example 7. Specifically, liver damage marker (AST/ALT) analysis, liver weight/fatty liver examination, hepatic triglyceride measurement, and liver ORO staining analysis were performed.
To analyze the liver damage markers, AST/ALT, blood biochemical analysis was performed on the blood of a material-treated obese mouse model. Specifically, the collected blood was divided into two tubes, approximately 200 µL of the blood was put into each EDTA tube, and the remaining volume was injected into a vacutainer tube containing a coagulant. Blood collected in an EDTA tube was used to measure glycated hemoglobin on the same day, while the blood collected in the vacutainer tube was left at room temperature for 15 to 20 minutes to coagulate, and then centrifuged for 10 minutes to obtain serum. The serum was used for blood biochemical analysis.

[3] = tested on: diet-induced obesity (DIO) mouse model; test: DIO mouse model QD: body composition by DEXA (Example 7-2); type: in vivo, mice; details: QD (once daily), 45 nmol/kg/dose
Experimental: as §1
To analyze the anti-obesity effect, body composition analysis was conducted using Dual Energy X-ray Absorptiometry (DEXA). The DEXA imaging system (VET DXA iNSiGHT) is for measuring the bone density and body fat of an experimental animal through dual X-ray transmission, and after the completion of experimental material administration, DEXA fat mass and muscle mass were measured for each individual. Accordingly, body weight was categorized into BMC, lean, and fat, and the fat reduction was analyzed to provide a more objective assessment of the anti-obesity effect according to Example 7-1.

[4] = Mouse PK after single subcutaneous administration, LC-MS/MS of plasma; type: in vivo, mice; details: male, C57BL/6N, mouse, in vivo, sc
Experimental: Each of the experimental groups and the control was subcutaneously administered once to the dorsal area of a total of 12 mice using a 1 mL syringe equipped with a 26-gauge needle at a dose of 0.2 mg/5 mL/kg. After drug administration, approximately 0.04 to 0.05 mL of blood was collected per individual at the time scheduled for the orbital vein (4 mice were alternately sampled), and the blood collection times were 1, 2, 4, 8, 24 ,32 ,48, 56, 72, 96, and 120 hours. All plasma samples were analyzed using a self-developed LC-MS/MS assay. Pharmacokinetic analysis of blood drugs was performed using non-compartmental analysis, and analysis of pharmacokinetic parameters was performed using Phoenix WinNolin 64 (Version. 8.3.5 340).

SMILES: CCCCCCCCCCCCCCCC(=O)N[C@@H](CCC(=O)NCCCC[C@H](NC(=O)[C@H](CCCCN)NC(=O)[C@H](CC(=O)O)NC(=O)[C@@H](NC(=O)[C@@H](NC(=O)[C@H](CCCCN)NC(=O)[C@@H](NC(=O)[C@H](CCC(N)=O)NC(=O)[C@@H](NC(=O)[C@H](CC(C)C)NC(=O)[C@H](Cc1c[nH]c2ccccc12)NC(=O)[C@H](CC(N)=O)NC(=O)[C@@H](NC(=O)[C@H](Cc1ccccc1)NC(=O)[C@H](CC(=O)O)NC(=O)[C@H](CCCNC(=N)N)NC(=O)[C@H](C)NC(=O)[C@H](C)NC(=O)[C@H](CC(C)C)NC(=O)[C@H](C)NC(=O)[C@H](CC(=O)O)NC(=O)[C@H](CC(C)C)NC(=O)[C@H](Cc1ccc(O)cc1)NC(=O)[C@@H](NC(=O)[C@H](CO)NC(=O)[C@H](CC(C)C)NC(=O)[C@H](CC(=O)O)NC(=O)[C@H](CO)NC(=O)[C@@H](NC(=O)[C@H](Cc1ccccc1)NC(=O)[C@@H](NC(=O)CNC(=O)[C@H](CCC(=O)O)NC(=O)CNC(=O)[C@@H](N)Cc1c[nH]cn1)[C@@H](C)O)[C@@H](C)O)[C@@H](C)O)[C@@H](C)CC)[C@@H](C)CC)[C@@H](C)O)[C@@H](C)CC)[C@@H](C)O)C(=O)O)C(=O)O [HU020K2FA] (HELM PEPTIDE1{H.G.E.G.T.F.T.S.D.L.S.T.Y.L.D.A.L.A.A.R.D.F.I.N.W.L.I.Q.T.K.I.T.D.K.K}|PEPTIDE2{[CCCCCCCCCCCCCCCC(=O)[*:2]].[gGlu]}$PEPTIDE1,PEPTIDE2,35:R3-2:R2$$$V2.0; N-terminus and C-terminus assumed)
- HbA1c (%) ([1]; blood): 4.39±0.21%
- GLU ([1]; plasma): 209.2 ± 9.3 mg/dL
- HDL ([1]; plasma): 100.4 ± 9.3 mg/dL
- LDL ([1]; plasma): 8.9 ± 9.3 mg/dL
- TCHO ([1]; plasma): 198.6 ± 24.3 mg/dL
- TG ([1]; plasma): 75.1 ± 19.4 mg/dL
- ALT (U/L) [2]: 34.7±5.9 U/L
- AST (U/L) [2]: 68.5±9.2 U/L
- Fat ([3]; DEXA, DIO mice): 9.6 ± 1.0 g
- Lean ([3]; DEXA, DIO mice): 26.5 ± 1.7 g
- Weight ([3]; Table 9, DIO mice): 37.5 ± 2.6 g
- Weight (%) (Normalized to DIO vehicle) ([3]; Table 9, DIO mice): 80.3±4.4%
- Tmax [4]: 8 h
- half-life [4]: 6.6 h
